Data taken from patent US20080009435A1, “Synthetic methods for aplidine and new antitumoral derivatives, methods of making and using them” (Pharma Mar, S.A., a Spain corporation, priority 2000, published 2008).
Like-named read-outs stand apart in the source and are kept apart here. *1 amine or outer side, *2 acyl side, *3 side chain or, on linkers, in order; H or OH if unused. Where a SMILES comes first, the peptide text is derived from it. Bridges are numbered along the chain shown (N, C = ends). [ ]: non-standard residue; d: D form. The star is where a group is joined. ξ: configuration not given here. X1 = CC[C@H](C)[C@@H](N[*:1])[C@@H](O)CC(=O)O[C@H](C(=O)[C@H](C)C(=O)[*:2])C(C)C; X2 = CC[C@H](C)[C@@H](N[*:1])[C@@H](O)CC(=O)[*:2]; X4 = CC(C)[C@H](N[*:1])C(=O)[C@H](C)C(=O)[*:2]; X3 = C[C@H](O[Si](C)(C)C(C)(C)C)C(=O)*; NMeY = CN[C@@H](Cc1ccc(O)cc1)C(=O)O; dNMeL = CN[C@H](CC(C)C)C(=O)O; Hiv = CC(C)[C@H](O)C(=O)O; Pyruvoyl = CC(=O)C(=O)*; Cbz = O=C(OCc1ccccc1)*; ξP = O=C(O)C1CCCN1

Assays:
[1] = system: A549 human lung carcinoma; assay: Cytotoxicity IC50 (after Berjeron et al)
From the text: (§1) Methodology: after Berjeron et al, Biochem and Bioph Res. Comm., 1984, 121, 3, 848-854.

[2] = system: HT-29 human colon carcinoma; assay: Cytotoxicity IC50 (after Berjeron et al)
From the text: as §1

[3] = system: P388 Murine lymphoma; assay: Cytotoxicity IC50 (after Berjeron et al)
From the text: as §1

[4] = system: MEL-28 human melanoma; assay: Cytotoxicity IC50 (after Berjeron et al)
From the text: as §1

[5] = system: DU145 human prostate carcinoma; assay: Cytotoxicity IC50 (after Berjeron et al); assay type: cell-based
From the text: P388=Murine lymphoma. A549=human lung carcinoma. HT-29=human colon carcinoma. MEL-28=human melanoma. DU145=human prostate carcinoma
Chem. 2000, 65, 782-792. Their synthesis was published before their discovery (l): Org. […] A549=human lung carcinoma. HT-29=human colon carcinoma. MEL-28=human melanoma. DU145=human prostate carcinoma

[6] = system: tumor cells; assay: In vitro antitumor activity; assay type: cell-based
[7] = Homo sapiens, A549, read-out: Cytotoxicity of aplidine derivatives IC50 (Molar) A549
[8] = Homo sapiens, HT-29, read-out: Cytotoxicity of aplidine derivatives IC50 (Molar) HT29
[9] = Mus musculus, P388, read-out: Cytotoxicity of aplidine derivatives IC50 (Molar) P388
[10] = Homo sapiens, SK-MEL-28, read-out: Cytotoxicity of aplidine derivatives IC50 (Molar) MEL28
[11] = read-out: Cytotoxicity of aplidine derivatives IC50 (Molar) A549, A549
[12] = read-out: Cytotoxicity of aplidine derivatives IC50 (Molar) HT29, HT29
[13] = read-out: Cytotoxicity of aplidine derivatives IC50 (Molar) P388, P388
[14] = read-out: Cytotoxicity of aplidine derivatives IC50 (Molar) MEL28, MEL28
[15] = DU145, read-out: Cytotoxicity of aplidine derivatives IC50 (Molar) DU145

Compound	IC50 [1, 7]	IC50 [2, 8]	IC50 [1, 11]	IC50 [2, 12]	also measured
CC[C@H](C)[C@H]1NC(=O)[C@@H](NC(=O)[C@@H](CC(C)C)N(C)C(=O)C2CCCN2C(=O)[C@H](C)O[Si](C)(C)C(C)(C)C)[C@@H](C)OC(=O)[C@H](Cc2ccc(OC)cc2)N(C)C(=O)[C@@H]2CCCN2C(=O)[C@H](CC(C)C)NC(=O)[C@H](C(C)C)NC(=O)C[C@@H]1O (stereo partly drawn) [9LSVPL2(L), [Val]^3-[L-Lac(OTBDMS)]^9-aplidine] (X3-[ξP][dNMeL]T[X2]VLP[NMeY](Me); ester 3-C)	10.2 nM	8.55 nM			
C=C(C)C(=O)N1CCC[C@]12CCN([C@H](CC(C)C)C(=O)N[C@@H]1C(=O)N[C@H]([C@@H](C)CC)[C@@H](O)CC(=O)O[C@@H](C(C)C)C(=O)N[C@@H](CC(C)C)C(=O)N3CCC[C@H]3C(=O)N(C)[C@@H](Cc3ccc(OC)cc3)C(=O)O[C@@H]1C)C2=O [9SASHPL1]	93.9 nM	93.9 nM			
CC[C@H](C)[C@H]1NC(=O)[C@@H](NC(=O)[C@@H](CC(C)C)N2CC[C@]3(CCCN3C(=O)OC(C)(C)C)C2=O)[C@@H](C)OC(=O)[C@H](Cc2ccc(OC)cc2)N(C)C(=O)[C@@H]2CCCN2C(=O)[C@H](CC(C)C)NC(=O)[C@@H](C)C(=O)[C@H](C(C)C)OC(=O)C[C@@H]1O [9SBSAPL1, [(5R)-1-(tert-buthoxycarbonyl)-7-[(1R)-1-carboxy-3-methylbutyl]-6-oxo-1,7-diazaspiro[4,4]nonane]^7-9-aplidine]	8.68 nM	8.68 nM			
CC[C@H](C)[C@H]1NC(=O)[C@@H](NC(=O)[C@@H](CC(C)C)N2CC[C@]3(CCCN3C(=O)OC(C)(C)C)C2=O)[C@@H](C)OC(=O)[C@H](Cc2ccc(OC)cc2)N(C)C(=O)[C@@H]2CCCN2C(=O)[C@H](CC(C)C)NC(=O)[C@H](C(C)C)OC(=O)C[C@@H]1O [9SBSHPL1]	4.56 nM	4.56 nM			
CC[C@H](C)[C@H]1NC(=O)[C@@H](NC(=O)[C@@H](CC(C)C)N2CC[C@]3(CCCN3C(=O)C(C)C)C2=O)[C@@H](C)OC(=O)[C@H](Cc2ccc(OC)cc2)N(C)C(=O)[C@@H]2CCCN2C(=O)[C@H](CC(C)C)NC(=O)[C@@H](C)C(=O)[C@H](C(C)C)OC(=O)C[C@@H]1O [9SISAPL1, [(5R)-1-(isobutiryl)-7-[(R)-1-carboxy-3-methylbutyl]-6-oxo-1,7-diazaspiro[4,4]nonane]^7-9-Aplidine]	89.1 nM	89.1 nM			
CC[C@H](C)[C@H]1NC(=O)[C@@H](NC(=O)[C@@H](CC(C)C)N2CC[C@]3(CCCN3C(=O)C(C)C)C2=O)[C@@H](C)OC(=O)[C@H](Cc2ccc(OC)cc2)N(C)C(=O)[C@@H]2CCCN2C(=O)[C@H](CC(C)C)NC(=O)[C@H](C(C)C)OC(=O)C[C@@H]1O [9SISHPL1, [Hiv]^3-[(5R)-1-(tert-buthoxycarbonyl)-7-[(1R)-1-carboxy-3-methylbutyl]-6-oxo-1,7-diazaspiro[4,4]nonane]^7-9-aplidine]	93.8 nM	93.8 nM			
CC[C@H](C)[C@H]1NC(=O)[C@@H](NC(=O)[C@@H](CC(C)C)N2CC[C@]3(CCCN3C(=O)C(C)=O)C2=O)[C@@H](C)OC(=O)[C@H](Cc2ccc(OC)cc2)N(C)C(=O)[C@@H]2CCCN2C(=O)[C@H](CC(C)C)NC(=O)[C@@H](C)C(=O)[C@H](C(C)C)OC(=O)C[C@@H]1O [9SPSAPL1, [(5R)-1-(pyruvyl)-7-[(1R)-1-carboxy-3-methylbutyl]-6-oxo-1,7-diazaspiro[4,4]nonane]^7-9-aplidine]	8.55 nM	8.9 nM			
CC[C@H](C)[C@H]1NC(=O)[C@@H](NC(=O)[C@@H](CC(C)C)N2CC[C@]3(CCCN3C(=O)C(C)=O)C2=O)[C@@H](C)OC(=O)[C@H](Cc2ccc(OC)cc2)N(C)C(=O)[C@@H]2CCCN2C(=O)[C@H](CC(C)C)NC(=O)[C@H](C(C)C)OC(=O)C[C@@H]1O [9SPSHPL1, [Hiv]^3-[(5R)-1-(pyruvyl)-7-[(1R)-1-carboxy-3-methylbutyl]-6-oxo-1,7-diazaspiro[4,4]nonane]^7-9-aplidine]	93.8 nM	93.8 nM			
CC[C@H](C)[C@H]1NC(=O)[C@@H](NC(=O)[C@@H](CC(C)C)NC)[C@@H](C)OC(=O)[C@H](Cc2ccc(OC)cc2)N(C)C(=O)[C@@H]2CCCN2C(=O)[C@H](CC(C)C)NC(=O)[C@@H](C)C(=O)[C@H](C(C)C)OC(=O)C[C@@H]1O [SAPL2, Didemnin A, reference compound] (H-[dNMeL]T[X1]LP[NMeY](Me); ester 2-C)	4.24 nM	8.48 nM			IC50 [3, 9]: 5.3 nM; IC50 [4, 10]: 1.13 nM
CC[C@H](C)[C@H]1NC(=O)[C@@H](NC(=O)[C@@H](CC(C)C)N(C)C(=O)OCc2ccccc2)[C@@H](C)OC(=O)[C@H](Cc2ccc(OC)cc2)N(C)C(=O)[C@@H]2CCCN2C(=O)[C@H](CC(C)C)NC(=O)[C@@H](C)C(=O)[C@H](C(C)C)OC(=O)C[C@@H]1O [SAPL3, Z-Didemnin A] (Cbz-[dNMeL]T[X1]LP[NMeY](Me); ester 2-C)	2.32 nM	4.64 nM			IC50 [3, 9]: 9.3 nM; IC50 [4, 10]: 4.64 nM
CC[C@H](C)[C@H]1NC(=O)[C@@H](NC(=O)[C@@H](CC(C)C)NC)[C@@H](C)OC(=O)[C@H](Cc2ccc(OC)cc2)N(C)C(=O)[C@@H]2CCCN2C(=O)[C@H](CC(C)C)NC(=O)[C@H](C(C)C)OC(=O)C[C@@H]1O [SHPL2, [Hiv]^3-Didemnin A] (H-[dNMeL]T[X2][Hiv]LP[NMeY](Me); ester 2-C)	1.13 nM	1.13 nM			IC50 [3, 9]: 1.1 nM; IC50 [4, 10]: 1.13 nM
CC[C@H](C)[C@H]1NC(=O)[C@@H](NC(=O)[C@@H](CC(C)C)N(C)C(=O)[C@@H]2CCCN2C(=O)C(C)=O)[C@@H](C)OC(=O)[C@H](Cc2ccc(OC)cc2)N(C)C(=O)[C@@H]2CCCN2C(=O)[C@H](CC(C)C)NC(=O)[C@@H](C)C(=O)[C@H](C(C)C)NC(=O)C[C@@H]1O [SNPL1, [Aip]^3-Aplidine] (Pyruvoyl-P[dNMeL]T[X2][X4]LP[NMeY](Me); ester 3-C)					IC50 ([1]; Homo sapiens, A549, read-out: Cytotoxicity of [aa3]-aplidine Congeners IC50 (Molar) A549): 0.901 nM; IC50 ([2]; Homo sapiens, HT-29, read-out: Cytotoxicity of [aa3]-aplidine Congeners IC50 (Molar) HT29): 0.901 nM
CC[C@H](C)[C@H]1NC(=O)[C@@H](NC(=O)[C@@H](CC(C)C)NC)[C@@H](C)OC(=O)[C@H](Cc2ccc(OC)cc2)N(C)C(=O)[C@@H]2CCCN2C(=O)[C@H](CC(C)C)NC(=O)[C@@H](C)C(=O)[C@H](C(C)C)NC(=O)C[C@@H]1O [SNPL2, [Aip]^3-Didemnin A] (H-[dNMeL]T[X2][X4]LP[NMeY](Me); ester 2-C)	10.6 nM	10.6 nM			
CC[C@H](C)[C@H]1NC(=O)[C@@H](NC(=O)[C@@H](CC(C)C)N(C)C(=O)OCc2ccccc2)[C@@H](C)OC(=O)[C@H](Cc2ccc(OC)cc2)N(C)C(=O)[C@@H]2CCCN2C(=O)[C@H](CC(C)C)NC(=O)[C@@H](C)C(=O)[C@H](C(C)C)NC(=O)C[C@@H]1O [SNPL3, [Aip]^3 Z-Didemnin A] (Cbz-[dNMeL]T[X2][X4]LP[NMeY](Me); ester 2-C)	0.0929 nM	0.0929 nM			
CC[C@H](C)[C@H]1NC(=O)[C@@H](NC(=O)[C@@H](CC(C)C)NC)[C@@H](C)OC(=O)[C@H](Cc2ccc(OC)cc2)N(C)C(=O)[C@@H]2CCCN2C(=O)[C@H](CC(C)C)NC(=O)[C@H](C(C)C)NC(=O)C[C@@H]1O [SVPL2, [Val]^3-Didemnin A] (H-[dNMeL]T[X2]VLP[NMeY](Me); ester 2-C)	1.13 nM	1.13 nM			IC50 [3, 9]: 1.1 nM; IC50 [4, 10]: 1.13 nM; IC50 ([5]; Homo sapiens, DU-145, read-out: Cytotoxicity of aplidine derivatives IC50 (Molar) DU145): 1.13 nM
[Gly]^8-[coumarin]^9-didemnin A [8G9CSAPL1]			4.26 nM	4.26 nM	
[Hiv]^3 Z-Didemnin A [SHPL3]			4.9 nM	4.9 nM	IC50 [3, 13]: 4.9 nM; IC50 [4, 14]: 4.9 nM; IC50 [5, 15]: 4.9 nM
[Hiv]^3-[Ala]^9 aplidine [9ASHPL1]			0.916 nM	0.916 nM	
[Hiv]^3-[D-Lac(OTBDMS)]^9-aplidine [9LSHPL2(D)]			85.5 nM	85.5 nM	
[Hiv]^3-[NVa-Pro]^9-aplidine [9NVSHPL1]			0.923 nM	0.923 nM	
[Hiv]^3-[Pro]^8-didemnin A [8PSHPL1]			1.01 nM	1.01 nM	
[Hiv]^3-[Z-Ala]^9-aplidine [9ZASHPL2]			4.21 nM	4.21 nM	
[Hiv]^3-[Z-NVa-Pro]^9-aplidine [9NVSHPL2]			8.22 nM	8.22 nM	
[MeVal]^3-aplidine					in vitro antitumor activity [6]: high level of in vitro antitumor activity
[NVa-Pro]^9-aplidine [9NVSAPL1]			0.439 nM	0.439 nM	
[Val]^3 Z-Didemnin A [SVPL3]			0.98 nM	0.98 nM	IC50 [3, 13]: 0.98 nM; IC50 [4, 14]: 0.98 nM; IC50 [5, 15]: 0.98 nM
[ZNVa-Pro]^9-aplidine [9NVSAPL2]			3.93 nM	3.93 nM	IC50 [3, 13]: 7.9 nM; IC50 [4, 14]: 3.93 nM; IC50 [5, 15]: 3.93 nM
[coumarin]^8-didemnin A [8CSAPL1]			0.941 nM	0.941 nM	
